This is an account of results in patent US8865891B2, “Optically-detectable enzyme substrates and their method of use” (priority 2004, dated 2014).

One series deals with TEM-1 β-lactamase (Escherichia coli, UniProt P62593). In words: Fluorescence from precipitating β-lactamase substrate in 96-well microplate. It is filed as biochemical. The procedure: This was diluted 2-fold in methanol to give a working solution of 1 mM. 20 μL of 250 nM TEM-1 β-lactamase was added to the wells of a 96-well microplate. Appropriate volumes of substrate were added to the wells to give final concentrations of 0, 30, 50, 60, 75, 100, 140, 160 and 200 uM after diluting to 100 μL with 100 mM phosphate, 150 mM NaCl (pH7.1). The final β-lactamase concentration was 50 nM. Samples were excited @ 360 nm and fluorescence was measured @ 450 nm, signal was read @ 5, 13, 19, 26, 35, 45, 51 and 65 minutes. Maximum signal was attained after 5 minutes.

The target in a further series is TEM-1 (Escherichia coli, UniProt P62593). The conditions noted are these: read-out: Km (μM) difluoro sub., 5 nM TEM-1, PBS, pH 7.2.
A short description of series [1]: pH range, hydrolysis rate: background fluorescence of substrate in buffers without enzyme. In kind it is physicochemical. The conditions noted are these: for increase in fluorescence due to hydrolysis (percentage of maximum fluorescence): 1 μg/mL, over 250 min; for time to complete hydrolysis: assumes a constant rate of hydrolysis. The method, then:
Compound 108 was prepared at a concentration of 1 μg/ml in three different buffers: MES at pH 5.5, PBS at pH 7.2, and Tris at pH 8.0. The substrate solutions were applied to the wells of a microplate, the plate was protected from light, and fluorescence values were gathered at time points from 10-250 minutes. […] Maximum signal was determined by the fluorescence value obtained when 10 μl of a 100 μg/ml solution of β-lactamase was added to control wells. Each point is the mean of 12 replicates. See, Example 32.
Solutions of Compound 108 (1 μg/mL) were prepared in pH 5.5 MES, pH 7.2 PBS, and pH 8.0 Tris-HCl, then added to 16 wells of a 96-well plate. For each pH, high concentrations of TEM-1 were added to 4 wells to obtain a maximum signal (assuming complete cleavage of all substrate). The entire plate was read every 15 min. for 250 min. All fluorescent signals were averaged, then normalized to a percentage of the maximum fluorescence. […] The Tris-HCl samples increased in fluorescence about 7.5% over 250 min., corresponding to complete hydrolysis after about 55 hrs. […] These estimations assume a constant rate of hydrolysis.

Series [2] addresses β-lactamase-conjugated secondary antibody (Escherichia coli, UniProt P62593). As to the kind of experiment: Fluorogenic sandwich ELISA for prostate specific antigen (PSA). Conditions: 1 μg substrate; fluorogenic assay. The procedure: For the fluorogenic assay, 100 μl/well of a 10 μg/ml solution of anti-prostate specific antigen (PSA) antibody was applied to microplate wells. After incubation and washes, a dilution series of purified PSA was applied, and detection was achieved using 100 μl of a 10 μg/ml of an anti-PSA primary antibody and 100 μl of a 10 μg/ml of a β-lactamase-conjugated secondary antibody in the presence of 1 μg Compound 108 substrate (with appropriate washes between steps). The Z-statistic^1 gives a lower limit of detection of PSA in this assay of 16 pg/ml. For the colorimetric assay, a commercially available kit for the detection of PSA in human serum or plasma was used according to the manufacturers instructions. The assay was performed using the PSA standards provided in the kit. […] The reaction was stopped after 15 minutes using the stop solution provided in the kit and the absorbance was read at 450 nm. […]
Optimal concentrations for use in ELISA-format assays was determined experimentally using a model sandwich ELISA to detect human Prostate Specific Antigen (PSA). […] The PSA standards were detected with a polyclonal rabbit anti-PSA antibody, then a secondary conjugate of goat anti-rabbit TEM-1. Plates were developed by addition of a β-lactamase substrate solution to drained wells, then measurement of fluorescence on the Tecan Safire fluorescence plate reader.

Read-outs that look alike come from different tables or passages of the source.

TEM-1 β-lactamase, sequence (P62593 24-286 limits assumed): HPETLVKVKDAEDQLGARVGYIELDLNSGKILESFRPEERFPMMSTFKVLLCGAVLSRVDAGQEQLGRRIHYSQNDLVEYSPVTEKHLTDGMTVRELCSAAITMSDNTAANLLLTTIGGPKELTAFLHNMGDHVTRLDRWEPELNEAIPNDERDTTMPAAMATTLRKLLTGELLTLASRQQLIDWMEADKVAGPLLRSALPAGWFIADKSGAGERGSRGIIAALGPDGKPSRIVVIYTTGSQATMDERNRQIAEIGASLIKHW
TEM-1, sequence (P62593 24-286 limits assumed): as above
β-lactamase-conjugated secondary antibody, sequence (P62593 24-286 limits assumed): as above

As to `O=C(Cc1cccs1)NC1C(=O)N2C(C(=O)O)=C(COc3ccccc3-c3nc4ccccc4c(=O)[nH]3)C[S+]([O-])C12` (stereo not drawn) [Compound 38], the “fluorescence enhancement upon reaction w/β-lactamase” value at TEM-1 β-lactamase (50 nM β-lactamase, excitation 360 nm, emission 450 nm, pH 7.1) is listed as at least 90 fold. For the same molecule, the “time at which maximum signal was attained” value on TEM-1 β-lactamase (50 nM β-lactamase, pH 7.1) was determined as 5 min. Also, on TEM-1 β-lactamase (40% methanol), the “reaction with β-lactamase in the presence of 40% methanol” value is “no reaction occurred”. At TEM-1 β-lactamase (substrate up to 200 uM, presumably due to decreased solubility), the “signal at high concentrations of substrate” value is on record as “signal dropped”.

The Km is the substrate concentration at which the rate is half of its maximum. Regarding `O=C(Cc1cccs1)NC1C(=O)N2C(C(=O)O)=C(C=CCOc3cc4c(cc3F)C3(OC(=O)c5ccccc53)c3cc(F)c(OCC=CC5=C(C(=O)O)N6C(=O)C(NC(=O)Cc7cccs7)C6[S+]([O-])C5)cc3O4)C[S+]([O-])C12` (stereo not drawn) [Compound 108], the Km worked out at 40 µM at TEM-1 (Lineweaver-Burk plot) and 36 µM on TEM-1 (Scatchard plot).

On to `O=C(Cc1cccs1)NC1C(=O)N2C(C(=O)O)=C(/C=C/COc3cc4c(cc3F)C3(OC(=O)c5ccccc53)c3cc(F)c(OC/C=C/C5=C(C(=O)O)N6C(=O)C(NC(=O)Cc7cccs7)C6[S+]([O-])C5)cc3O4)C[S+]([O-])C12` (stereo not drawn) [Compound 108], for which the “increase in fluorescence due to hydrolysis (percentage of maximum fluorescence)” value was “about 3.25%” in series [1] (pH 5.5 MES and pH 7.2 PBS); “about 7.5%” in series [1] (pH 8.0 Tris-HCl). In addition, the “time to complete hydrolysis” value in series [1] (pH 5.5 MES and pH 7.2 PBS) is reported as “about 128 hrs”; in series [1] (pH 8.0 Tris-HCl), “about 55 hrs”. Besides, the “hydrolysis rate in pH 8.0 Tris-HCl relative to pH 5.5 MES and pH 7.2 PBS” value in series [1] (pH 8.0 Tris-HCl vs MES/PBS) is listed as “about double”. Also, the “lower limit of detection of PSA (Z-statistic)” value in series [2] was 16 pg/mL.
